This is an account of results in patent publication US11945836B2, “Compositions and methods for treating CNS disorders” (Sage Therapeutics, Inc., priority 2014, dated 2024).

Bounds are passed on as bounds.

One assay has as its target rat brain cortical membranes ([35S]-TBPS binding). As to the kind of experiment: Steroid inhibition of [35S]-TBPS binding (radioligand displacement). The conditions noted are these: 3 nM [35S]-TBPS, in the presence of 5 μM GABA. Here is the method:
Steroid Inhibition of TBPS Binding
TBPS binding assays using rat brain cortical membranes in the presence of 5 μM GABA has been described (Gee et al, J. Pharmacol. Exp. Ther. 1987, 241, 346-353; Hawkinson et al, Mol. Pharmacol. 1994, 46, 977-985; Lewin, A. H et al., Mol. Pharmacol. 1989, 35, 189-194).
Briefly, cortices are rapidly removed following decapitation of carbon dioxide-anesthetized Sprague-Dawley rats (200-250 g). The cortices are homogenized in 10 volumes of ice-cold 0.32 M sucrose using a glass/teflon homogenizer and centrifuged at 1500×g for 10 min at 4° C. The resultant supernatants are centrifuged at 10,000×g for 20 min at 4° C. to obtain the P2 pellets. The P2 pellets are resuspended in 200 mM NaCl/50 mM Na—K phosphate pH 7.4 buffer and centrifuged at 10,000×g for 10 min at 4° C. This washing procedure is repeated twice and the pellets are resuspended in 10 volumes of buffer. Aliquots (100 uL) of the membrane suspensions are incubated with 3 nM [^35S]-TBPS and 5 μL aliquots of test drug dissolved in dimethyl sulfoxide (DMSO) (final 0.5%) in the presence of 5 μM GABA. The incubation is brought to a final volume of 1.0 mL with buffer. […] Following a 90 min incubation at room temp, the assays are terminated by filtration through glass fiber filters (Schleicher and Schuell No. 32) using a cell harvester (Brandel) and rinsed three times with ice-cold buffer. Filter bound radioactivity is measured by liquid scintillation spectrometry. Non-linear curve fitting of the overall data for each drug averaged for each concentration is done using Prism (GraphPad). […] The concentration of test compound producing 50% inhibition (IC50) of specific binding and the maximal extent of inhibition (Imax) are determined for the individual experiments with the same model used for the overall data and then the means±SEMs of the individual experiments are calculated.
Various compounds are or can be screened to determine their potential as modulators of [^35S]-TBPS binding in vitro. These assays are or can be performed in accordance with the above discussed procedures.
For orientation: In a radioligand displacement assay an active substance lowers the binding of a labelled ligand.
Usually IC50 stands for the concentration needed to halve the response being measured. `C[C@@]1(O)CC[C@H]2[C@H](CC[C@@H]3[C@@H]2CC[C@]2(C)[C@@H](C(=O)c4ccccc4)CC[C@@H]32)C1` [Compound 1]: the IC50 is less than 20 nM. The same measure, in the same setting: then `C[C@@]1(O)CC[C@H]2[C@H](CC[C@@H]3[C@@H]2CC[C@]2(C)[C@@H](C(=O)c4nc5ccccc5s4)CC[C@@H]32)C1` [Compound 8], with greater than 100 nM; and `Cn1cc(C(=O)[C@H]2CC[C@H]3[C@@H]4CC[C@@H]5C[C@](C)(O)CC[C@@H]5[C@H]4CC[C@]23C)nn1` [Compound 100], with greater than 100 nM. The same measure, in the same setting: the figure for `C[C@@]1(O)CC[C@@]2(C)[C@@H](CC[C@@H]3[C@@H]2CC[C@]2(C)[C@@H](C(=O)c4cccc(Cl)c4)CC[C@@H]32)C1` [Compound 101] is greater than 100 nM; for `COC[C@]12CC[C@@](C)(O)C[C@@H]1CC[C@H]1[C@@H]3CC[C@H](C(=O)c4ccc(OC(F)(F)F)cc4)[C@@]3(C)CC[C@@H]12` [Compound 102] it is 50 to 100 nM; for `COC[C@]12CC[C@@](C)(O)C[C@@H]1CC[C@H]1[C@@H]3CC[C@H](C(=O)c4cccc(C)c4)[C@@]3(C)CC[C@@H]12` [Compound 103] it is greater than 100 nM. In the case of `CCc1ccc(C(=O)[C@H]2CC[C@H]3[C@@H]4CC[C@H]5C[C@](C)(O)CC[C@]5(COC)[C@H]4CC[C@]23C)cc1` [Compound 104], the IC50 was greater than 100 nM. Same read-out and setting: the figure for `COC[C@]12CC[C@@](C)(O)C[C@@H]1CC[C@H]1[C@@H]3CC[C@H](C(=O)c4ccccc4OC)[C@@]3(C)CC[C@@H]12` [Compound 105] is greater than 100 nM; for `COC[C@]12CC[C@@](C)(O)C[C@@H]1CC[C@H]1[C@@H]3CC[C@H](C(=O)c4cccc(OC)c4)[C@@]3(C)CC[C@@H]12` [Compound 106] it is greater than 100 nM.

Regarding `COC[C@]12CC[C@@](C)(O)C[C@@H]1CC[C@H]1[C@@H]3CC[C@H](C(=O)c4ccc(OC)cc4)[C@@]3(C)CC[C@@H]12` [Compound 107], the IC50 was 50 to 100 nM. Regarding `C[C@@]1(O)CC[C@@]2(C)[C@@H](CC[C@@H]3[C@@H]2CC[C@]2(C)[C@@H](C(=O)c4ccc(OC(F)(F)F)cc4)CC[C@@H]32)C1` [Compound 108], the IC50 was greater than 100 nM.

On to `COC[C@]12CC[C@@](C)(O)C[C@@H]1CC[C@H]1[C@@H]3CC[C@H](C(=O)c4ccc(N(C)C)cc4)[C@@]3(C)CC[C@@H]12` [Compound 109], for which the IC50 is greater than 100 nM. The same measure, in the same setting: then `COC[C@]12CC[C@@](C)(O)C[C@@H]1CC[C@H]1[C@@H]3CC[C@H](C(=O)c4cccc(Cl)c4)[C@@]3(C)CC[C@@H]12` [Compound 110], with 50 to 100 nM. On the same count and under the same terms, the figure for `CN(C)c1ccc(C(=O)[C@H]2CC[C@H]3[C@@H]4CC[C@H]5C[C@](C)(O)CC[C@@H]5[C@H]4CC[C@]23C)cc1` [Compound 111] is greater than 100 nM; for `C[C@@]1(O)CC[C@@]2(C)[C@@H](CC[C@@H]3[C@@H]2CC[C@]2(C)[C@@H](C(=O)c4ccccn4)CC[C@@H]32)C1` [Compound 113] it is greater than 100 nM; for `CN(C)c1ccc(C(=O)[C@H]2CC[C@H]3[C@@H]4CC[C@H]5C[C@](C)(O)CC[C@]5(C)[C@H]4CC[C@]23C)cc1` [Compound 114] it is greater than 100 nM.

As for `COC[C@]12CC[C@@](C)(O)C[C@@H]1CC[C@H]1[C@@H]3CC[C@H](C(=O)c4ccccn4)[C@@]3(C)CC[C@@H]12` [Compound 115], the IC50 is greater than 100 nM. On the same count and under the same terms, the figure for `Cn1ccc(C(=O)[C@H]2CC[C@H]3[C@@H]4CC[C@H]5C[C@](C)(O)CC[C@]5(C)[C@H]4CC[C@]23C)n1` [Compound 123] is greater than 100 nM; for `Cn1cc(C(=O)[C@H]2CC[C@H]3[C@@H]4CC[C@H]5C[C@](C)(O)CC[C@]5(C)[C@H]4CC[C@]23C)cn1` [Compound 124] it is 50 to 100 nM; for `C[C@@]1(O)CC[C@@]2(C)[C@@H](CC[C@@H]3[C@@H]2CC[C@]2(C)[C@@H](C(=O)c4cccnc4)CC[C@@H]32)C1` [Compound 125] it is 20 to 50 nM. As to `C[C@@]1(O)CC[C@@]2(C)[C@@H](CC[C@@H]3[C@@H]2CC[C@]2(C)[C@@H](C(=O)c4ccccc4-c4ccccc4)CC[C@@H]32)C1` [Compound 127], the IC50 is greater than 100 nM. Regarding `COc1ccc2cc(C(=O)[C@H]3CC[C@H]4[C@@H]5CC[C@H]6C[C@](C)(O)CC[C@]6(C)[C@H]5CC[C@]34C)ccc2c1` [Compound 128], the IC50 was greater than 100 nM.

`COc1cc(OC)cc(C(=O)[C@H]2CC[C@H]3[C@@H]4CC[C@@H]5C[C@](C)(O)CC[C@@H]5[C@H]4CC[C@]23C)c1` [Compound 130]: the IC50 was 20 to 50 nM. The same measure, in the same setting: the figure for `COc1ccc(C(=O)[C@H]2CC[C@H]3[C@@H]4CC[C@H]5C[C@](C)(O)CC[C@]5(C)[C@H]4CC[C@]23C)c(C)c1` [Compound 132] is greater than 100 nM; for `C[C@@]1(O)CC[C@@]2(C)[C@@H](CC[C@@H]3[C@@H]2CC[C@]2(C)[C@@H](C(=O)c4ccc5c(c4)OCO5)CC[C@@H]32)C1` [Compound 133] it is greater than 100 nM; for `CCc1ccc(C(=O)[C@H]2CC[C@H]3[C@@H]4CC[C@H]5C[C@](C)(O)CC[C@]5(C)[C@H]4CC[C@]23C)cc1` [Compound 134] it is greater than 100 nM. In the case of `Cc1cc(C)cc(C(=O)[C@H]2CC[C@H]3[C@@H]4CC[C@H]5C[C@](C)(O)CC[C@]5(C)[C@H]4CC[C@]23C)c1` [Compound 135], the IC50 is greater than 100 nM.

For the molecule `C[C@@]1(O)CC[C@H]2[C@H](CC[C@@H]3[C@@H]2CC[C@]2(C)[C@@H](C(=O)c4cc(F)cc(F)c4)CC[C@@H]32)C1` [Compound 136, (3,5-difluorophenyl)((3R,5R,8R,9R,10S,13S,14S,17S)-3-hydroxy-3,13-dimethylhexadecahydro-1H-cyclopenta[a]phenanthren-17-yl)methanone], the IC50 was 20 to 50 nM.

Consider `Cc1cc(C(=O)[C@H]2CC[C@H]3[C@@H]4CC[C@@H]5C[C@](C)(O)CC[C@]5(C)[C@H]4CC[C@]23C)ccc1F` [Compound 137], for which the half-inhibitory concentration (IC50) was in the range of 20 to 50 nM.

The next assay deals with T1, GABAA receptors α1β2γ2 (Homo sapiens, UniProt P14867+P47870).
T1 construct: expressed in transfected cells; host or cells: LTK (Ltk) cells, stably transfected
T1 sequence (P14867 28-456): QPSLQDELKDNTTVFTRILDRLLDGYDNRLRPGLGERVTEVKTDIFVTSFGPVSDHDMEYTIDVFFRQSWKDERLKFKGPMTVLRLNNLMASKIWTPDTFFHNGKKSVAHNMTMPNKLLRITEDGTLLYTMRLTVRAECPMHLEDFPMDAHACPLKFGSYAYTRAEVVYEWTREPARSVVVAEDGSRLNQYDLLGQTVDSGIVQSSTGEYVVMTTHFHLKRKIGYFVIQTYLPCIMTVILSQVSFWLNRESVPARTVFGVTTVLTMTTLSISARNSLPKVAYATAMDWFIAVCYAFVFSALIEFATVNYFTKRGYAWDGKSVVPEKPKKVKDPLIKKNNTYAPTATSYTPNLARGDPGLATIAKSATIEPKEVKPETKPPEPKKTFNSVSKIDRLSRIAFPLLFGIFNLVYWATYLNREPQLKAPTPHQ
T1 sequence (P47870 25-512 limits assumed): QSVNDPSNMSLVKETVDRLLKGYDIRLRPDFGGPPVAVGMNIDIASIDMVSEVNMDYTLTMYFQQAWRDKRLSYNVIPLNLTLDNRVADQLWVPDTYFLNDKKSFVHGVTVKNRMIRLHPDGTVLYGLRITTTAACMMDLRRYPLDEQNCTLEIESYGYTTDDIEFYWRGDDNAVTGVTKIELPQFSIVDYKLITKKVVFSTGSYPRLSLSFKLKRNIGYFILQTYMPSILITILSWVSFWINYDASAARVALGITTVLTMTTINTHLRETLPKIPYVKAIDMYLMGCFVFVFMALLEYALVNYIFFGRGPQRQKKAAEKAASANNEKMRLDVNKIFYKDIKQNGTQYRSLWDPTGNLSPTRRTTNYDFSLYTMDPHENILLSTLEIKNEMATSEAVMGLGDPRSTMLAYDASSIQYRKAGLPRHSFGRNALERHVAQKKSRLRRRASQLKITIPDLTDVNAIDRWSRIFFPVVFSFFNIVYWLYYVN
T1 sequence (P18507 40-475 partner): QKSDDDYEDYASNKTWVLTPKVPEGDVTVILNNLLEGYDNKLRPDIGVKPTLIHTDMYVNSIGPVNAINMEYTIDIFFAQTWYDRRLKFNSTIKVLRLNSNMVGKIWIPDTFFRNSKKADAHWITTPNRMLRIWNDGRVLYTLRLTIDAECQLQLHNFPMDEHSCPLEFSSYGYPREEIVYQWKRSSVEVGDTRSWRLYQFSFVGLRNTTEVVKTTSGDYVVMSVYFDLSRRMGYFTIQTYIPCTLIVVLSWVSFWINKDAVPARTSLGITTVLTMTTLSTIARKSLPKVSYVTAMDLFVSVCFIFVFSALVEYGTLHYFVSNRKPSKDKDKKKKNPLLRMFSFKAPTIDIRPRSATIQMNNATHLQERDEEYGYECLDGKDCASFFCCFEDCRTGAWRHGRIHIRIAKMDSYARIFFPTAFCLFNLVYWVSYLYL
The assay is described as follows: Patch clamp electrophysiology (QPatch) of recombinant GABAA receptors in Ltk cells. The conditions noted are these: 10 μM test article, 2 μM GABA (EC20), Ltk cells stably transfected with α1β2γ2, relative percentage potentiation; read-out: GABA (α1β2γ2) Qpatch in Ltk, % efficacy at 10 μM. It counts as cell-based. The protocol: Patch Clamp Electrophysiology of Recombinant α1β2γ2 and α4β3δ GABAA Receptors
Cellular electrophysiology is used to measure the pharmacological properties of our GABAA receptor modulators in heterologous cell systems. Each compound is tested for its ability to affect GABA mediated currents at a submaximal agonist dose (GABA EC20=2 μM). LTK cells are stably transfected with the α1β2γ2 subunits of the GABA receptor and CHO cells are transiently transfected with the α4β3δ subunits via the Lipofecatamine method. Cells were passaged at a confluence of about 50-80% and then seeded onto 35 mm sterile culture dishes containing 2 ml culture complete medium without antibiotics or antimycotics. Confluent clusters of cells are electrically coupled (Pritchett et al., Science, 1988, 242, 1306-1308). Because responses in distant cells are not adequately voltage clamped and because of uncertainties about the extent of coupling (Verdoorn et al., Neuron 1990, 4, 919-928), cells were cultivated at a density that enables the recording of single cells (without visible connections to other cells).
Whole cell currents were measured with HEKA EPC-10 amplifiers using PatchMaster software or by using the high throughput QPatch platform (Sophion). Bath solution for all experiments contained (in mM): NaCl 137 mM, KCl 4 mM, CaCl2 1.8 mM, MgCl2 1 mM, HEPES 10 mM, D-Glucose 10 mM, pH (NaOH) 7.4. […]
A general note: In patch-clamp work, channel activity is measured electrically.
Turning to `C[C@@]1(O)CC[C@H]2[C@H](CC[C@@H]3[C@@H]2CC[C@]2(C)[C@@H](C(=O)c4ccccc4)CC[C@@H]32)C1` [Compound 1], the Emax at 10 µM is greater than 500%.

In the case of `C[C@@]1(O)CC[C@H]2[C@H](CC[C@@H]3[C@@H]2CC[C@]2(C)[C@@H](C(=O)c4nc5ccccc5s4)CC[C@@H]32)C1` [Compound 8], the Emax at 10 µM lay in the range of 100 to 500%.
